Reference: patent US11117891B2, “Isoquinolin and naphthydrin compounds” (Eli Lilly and Company, priority 2017, dated 2021)

Legend:
[1] = biological target: recombinant human ASK1 (hASK1) catalytic domain (Homo sapiens (Human), UniProt Q99683); test: ASK1 enzymatic assay (ADP-Glo Kinase Assay); assay type: biochemical; conditions: for IC50: ADP production, MKK6 300 nM substrate, ATP 100 uM, mean ± standard deviation; for Efficacy (%): hASK1 enzymatic assay, relative to standard inhibitor (100%) and DMSO vehicle (0%)
Text: The purpose of this assay is to determine the effect of ASK1 inhibitors on the production of ADP by ASK1. The recombinant human ASK1 (hASK1) catalytic domain tagged with Glutathione S-transferase is used, and histidine-tagged full-length human MAP kinase kinase 6 (MKK6) and ATP are the substrate and cofactor, respectively.
The assay is done using an ADP-Glo™ Kinase Assay Kit (Promega, Catalog #V9102) according to the manufacturer's protocol with the following modifications. Briefly, hASK1 (0.25 nM) and MKK6 (300 nM) in a buffer (10 mM MOPS pH 7.0; 10 mM Mg-Acetate; 1 mM DTT; 0.025% NP-40; 0.05% BSA; 1.5% glycerol) are incubated with ASK1 inhibitors at varying concentrations ranging from 10.00 uM to 0.17 nM for 15 minutes, followed by incubation with ATP (100 uM) for 30 minutes at room temperature. ADP-Glo™ Reagent is added to terminate the kinase reaction and deplete the remaining ATP. The Kinase Detection Reagent is then added to convert ADP to ATP. The newly synthesized ATP is measured using a luciferase/luciferin reaction, and the luminescence determined by Envision (PerkinElmer). The luminescence intensities are analyzed by GeneData, and fit to a 4 parameter dose response-inhibitor logistics curve to determine IC50 values, using the effects of 5-(4-cyclopropyl-1H-imidazol-1-yl)-2-fluoro-4-methyl-N-{6-[4-(propan-2-yl)-4H-1,2,4-triazol-3-yl]pyridin-2-yl}benzamide as a standard and DMSO vehicle for 100% and 0% inhibition, respectively.

human ASK1 = human ASK1 (Homo sapiens (Human), UniProt Q99683); test: ASK1 autophosphorylation (Thr838) assay in HEK293 cells overexpressing human ASK1; assay type: cell-based; conditions: for IC50: H2O2-stimulated (1 mM, 10 min) ASK1 autophosphorylation at Thr838, HEK293 cells, HTRF, mean ± standard deviation, read-out: HEK pASK1 IC50; for Efficacy (%): HEK pASK1 assay, relative to standard inhibitor (100%) and DMSO vehicle (0%)
human ASK1, sequence (Q99683 whole entry): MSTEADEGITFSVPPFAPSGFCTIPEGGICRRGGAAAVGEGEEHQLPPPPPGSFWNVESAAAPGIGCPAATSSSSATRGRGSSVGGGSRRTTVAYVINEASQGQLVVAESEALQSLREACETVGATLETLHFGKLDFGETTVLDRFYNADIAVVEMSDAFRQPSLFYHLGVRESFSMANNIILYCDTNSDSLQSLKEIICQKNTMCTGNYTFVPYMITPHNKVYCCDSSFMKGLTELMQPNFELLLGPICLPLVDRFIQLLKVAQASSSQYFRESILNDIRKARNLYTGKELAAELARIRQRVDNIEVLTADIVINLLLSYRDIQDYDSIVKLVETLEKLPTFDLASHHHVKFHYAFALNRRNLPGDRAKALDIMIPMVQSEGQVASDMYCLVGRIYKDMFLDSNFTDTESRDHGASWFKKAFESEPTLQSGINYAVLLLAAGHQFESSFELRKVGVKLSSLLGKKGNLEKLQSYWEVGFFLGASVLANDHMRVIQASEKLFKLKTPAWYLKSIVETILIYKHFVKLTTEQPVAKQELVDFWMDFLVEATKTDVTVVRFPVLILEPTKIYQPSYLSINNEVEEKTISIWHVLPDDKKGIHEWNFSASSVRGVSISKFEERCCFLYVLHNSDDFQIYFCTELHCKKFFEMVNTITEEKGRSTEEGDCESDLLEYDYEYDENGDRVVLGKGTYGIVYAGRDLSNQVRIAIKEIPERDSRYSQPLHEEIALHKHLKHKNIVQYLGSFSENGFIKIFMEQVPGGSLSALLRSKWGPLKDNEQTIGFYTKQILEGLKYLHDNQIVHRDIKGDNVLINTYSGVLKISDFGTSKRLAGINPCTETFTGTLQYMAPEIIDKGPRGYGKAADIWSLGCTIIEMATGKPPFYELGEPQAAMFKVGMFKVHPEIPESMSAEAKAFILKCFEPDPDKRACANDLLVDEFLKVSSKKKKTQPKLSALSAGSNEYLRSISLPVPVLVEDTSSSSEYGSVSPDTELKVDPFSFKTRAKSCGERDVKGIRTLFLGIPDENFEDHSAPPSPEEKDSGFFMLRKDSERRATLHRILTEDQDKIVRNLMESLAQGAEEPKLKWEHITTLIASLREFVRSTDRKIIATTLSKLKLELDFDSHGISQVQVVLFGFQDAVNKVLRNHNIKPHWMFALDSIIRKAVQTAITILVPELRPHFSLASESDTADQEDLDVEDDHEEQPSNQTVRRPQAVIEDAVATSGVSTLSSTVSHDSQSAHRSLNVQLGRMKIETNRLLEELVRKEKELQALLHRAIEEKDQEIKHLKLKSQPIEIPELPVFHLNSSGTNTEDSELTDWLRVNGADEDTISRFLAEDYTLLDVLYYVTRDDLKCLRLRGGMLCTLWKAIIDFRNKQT

recombinant human ASK1 (hASK1) catalytic domain, sequence (Q99683 680-938): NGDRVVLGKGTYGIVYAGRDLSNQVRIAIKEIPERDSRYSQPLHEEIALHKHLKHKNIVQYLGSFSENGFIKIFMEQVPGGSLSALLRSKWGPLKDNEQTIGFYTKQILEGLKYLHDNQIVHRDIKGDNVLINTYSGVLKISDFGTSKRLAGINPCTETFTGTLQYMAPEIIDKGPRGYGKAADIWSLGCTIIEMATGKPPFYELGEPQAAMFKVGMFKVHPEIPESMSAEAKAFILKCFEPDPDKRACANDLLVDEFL

| Structure (SMILES) | IC50 [1] [nM] | Efficacy (%) [1] [%] | IC50 (human ASK1) [nM] | Efficacy (%) (human ASK1) |
| --- | --- | --- | --- | --- |
| Cc1cc2c(cc1-c1cnn(C(C)C)c1)C(=O)N(c1cccc(-c3nncn3C(C)C)n1)CC2 [Example 1, 7-(1-Isopropylpyrazol-4-yl)-2-[6-(4-isopropyl-1,2,4-triazol-3-yl)-2-pyridyl]-6-methyl-3,4-dihydroisoquinolin-1-one] | 3.6 ± 0.8 | 101 | 38.6 ± 2.4 | 107 |
| Cc1cc2c(cc1-n1cnc(C3CC3)c1)C(=O)N(c1cccc(-c3nncn3C(C)C)n1)CC2 [Example 2, 7-(4-Cyclopropylimidazol-1-yl)-2-[6-(4-isopropyl-1,2,4-triazol-3-yl)-2-pyridyl]-6-methyl-3,4-dihydroisoquinolin-1-one] | 1.8 ± 0.4 | 100.5 | 13.1 ± 2.8 | 103 |
| CC(C)n1cnnc1-c1cccc(N2CCc3ncc(-n4cnc(C5CC5)c4)cc3C2=O)n1.Cl [Example 3, 3-(4-Cyclopropylimidazol-1-yl)-6-[6-(4-isopropyl-1,2,4-triazol-3-yl)-2-pyridyl]-7,8-dihydro-1,6-naphthyridin-5-one; hydrochloride] | 3.8 ± 0.9 | 100.1 | 31.5 ± 6.6 | 107 |
| CC(C)n1cc(-c2cnc3c(c2)C(=O)N(c2cccc(-c4nncn4C(C)C)n2)CC3)cn1 [Example 4, 3-(1-Isopropylpyrazol-4-yl)-6-[6-(4-isopropyl-1,2,4-triazol-3-yl)-2-pyridyl]-7,8-dihydro-1,6-naphthyridin-5-one] | 4.2 ± 0.8 | 99.8 | 41.9 ± 0.5 | 105 |
